These results are taken from ChEMBL document CHEMBL3988442, “University of Dundee, Small-Polar-MMV Screening Library” (2021).

The assay relates to Schistosoma mansoni. The assay is described as follows: High throughput screening of compounds against Schistosoma mansoni motility. The format is functional. Set-up: dose or concentration left out as unconfirmed.
On to `CCCNCC1(O)CCCN(Cc2cccc(C)c2)C1=O` (stereo not drawn), for which the “Percent Effect” value is -43.91%.

Consider `COC(=O)c1sccc1NC(=O)C1CCCN1C(=O)c1ccco1` (stereo not drawn), for which the “Percent Effect” value was 1.887%.

On to `Cc1csc(N2CCN(Cc3ccccn3)CC2C)n1` (stereo not drawn), for which the “Percent Effect” value is listed as -63.75%.

Consider `CC(C)c1nnc2n1CC(CNCc1ccncc1)CC2` (stereo not drawn), for which the “Percent Effect” value is listed as -34.29%.

Regarding `CCCc1cc(=O)[nH]c2nnc(SCC(=O)NCc3ccc(C)cc3)n12`, the “Percent Effect” value is recorded as -78.33%.

As to `CC(=O)c1cc(CN2C[C@H]3CC[C@@H]2CN(S(=O)(=O)N(C)C)C3)cs1`, the “Percent Effect” value is listed as -16.28%.

As for `CN(C)C(C(=O)N1CCC(N2CCSCC2)CC1)c1ccccc1F` (stereo not drawn), the “Percent Effect” value is listed as 10.46%.

Consider `O=C(Nc1cccc(CN2CCOC2=O)c1)N1CCOCC1`, for which the “Percent Effect” value turned out to be 11.29%.

Turning to `O=c1nc(SCc2cccnc2)c2c(n1CCO)CCC2`, the “Percent Effect” value is -102.8%.

Regarding `CCN(CCn1cccn1)Cc1nc(-c2cccs2)oc1C`, the “Percent Effect” value is -16.9%.

For `Cc1cccnc1NC(=O)CSc1ccc2c(c1)OCCO2`, the “Percent Effect” value was -40.06%.

`Cc1nn(C)c(N(C)C)c1CNCC(O)COc1ccc(F)cc1` (stereo not drawn): the “Percent Effect” value was -41.92%.

Turning to `OC1CCN(Cc2cc3c(cc2Br)OCCO3)CC1`, the “Percent Effect” value came to 8.478%.

For `Cc1ccc(F)c(OC2(C(=O)O)CCN(C(=O)N3CCCC3)CC2)c1`, the “Percent Effect” value was -4.164%.

As to `COc1ccc(-n2nnc(C(=O)NC(C)C)c2C2CC2)cc1`, the “Percent Effect” value came to 0.8394%.

As to `Cc1nccn1-c1cc(CNC(=O)C(C)(C)C)ccn1`, the “Percent Effect” value is -28.12%.

Take `CN(C)C(CNC(=O)c1cccc(-n2cnnn2)c1)c1ccccc1Cl` (stereo not drawn): the “Percent Effect” value was found to be 53.46%.

On to `Nc1cc(CCCNC(=O)NC2CC2)nn1-c1ccccc1`, for which the “Percent Effect” value was -35.32%.

Consider `CCC(=O)N1CCC(c2nnc(Cn3cccn3)n2C2CC2)CC1`, for which the “Percent Effect” value is recorded as -15.52%.

`COc1ccc(OC)c(-c2nc(CN(C)Cc3nncn3C)c(C)o2)c1`: the “Percent Effect” value is listed as -42.05%.

Regarding `Cc1ccc(C(=O)N2CCC3(CCC(=O)N(CC(N)=O)C3)CC2)c(O)c1`, the “Percent Effect” value is recorded as -13.5%.

As for `Cc1cc(C(=O)N2CCC(c3nccn3CCCN(C)C)CC2)no1`, the “Percent Effect” value is given as -19.46%.

Regarding `Cc1n[nH]c(C2CN(C(=O)CCc3ccsc3)CCO2)n1` (stereo not drawn), the “Percent Effect” value is on record as -49.32%.

For `Cn1cc(-c2csc(N3CCOCC3)n2)cn1`, the “Percent Effect” value is 7.634%.

On to `O=C1CCC2(CCN(Cc3cc(F)cc(F)c3)CC2)CN1CCO`, for which the “Percent Effect” value is 4.054%.

Turning to `CCN(CCn1cccn1)Cc1nc(-c2ccccc2F)oc1C`, the “Percent Effect” value was -13.18%.

With `Cc1c(Br)cccc1C(=O)NC(C)CN1CCCC1=O` (stereo not drawn), the “Percent Effect” value is listed as -4.935%.

As for `Cc1ccc(NC(C)C(=O)NCc2cccs2)cc1C` (stereo not drawn), the “Percent Effect” value is listed as -60.11%.

As to `OCCOc1nc(-c2ccccc2Cl)no1`, the “Percent Effect” value was -41.46%.

For the molecule `Cc1cc(CN2CCN(C(=O)C(C)C)[C@@H]3CS(=O)(=O)C[C@@H]32)ccc1F`, the “Percent Effect” value came out at 10.81%.

`COc1ccc(CN(C)C(=O)CCc2c(C)nc(C)[nH]c2=O)cc1OC`: the “Percent Effect” value was -19.42%.

As for `O=C(c1ccccn1)N1CCCC(c2nccn2CC2CCC2)C1` (stereo not drawn), the “Percent Effect” value is -9.087%.

As to `CN(C)C(=O)c1ccc2c(c1)N(C)C(CC(=O)NCCC(C)(C)C)CO2` (stereo not drawn), the “Percent Effect” value was -13.7%.

For the molecule `CCc1ccc(C(=O)N2CCCC(n3cncn3)C2)o1` (stereo not drawn), the “Percent Effect” value is -35.91%.

As to `CC(C)(C)c1cc(CN2CC[C@@H](NC(=O)c3cccnc3)[C@H](O)C2)n[nH]1`, the “Percent Effect” value is on record as -5.341%.

With `CC(OCC(F)(F)F)C(=O)N1CCCCC1` (stereo not drawn), the “Percent Effect” value was -17.04%.

Turning to `COCCN(Cc1ccc(F)cc1Cl)C(=O)c1ccncc1`, the “Percent Effect” value is reported as -38.63%.

Take `CCN1CCCC1CN(CCN(C)C)S(=O)(=O)c1ccc(C#N)cc1` (stereo not drawn): the “Percent Effect” value was found to be 8.845%.

For the molecule `COCCNC(=O)Cn1nc(C(C)C)c2cnn(C(C)(C)C)c2c1=O`, the “Percent Effect” value is given as -20.39%.

For the molecule `O=C(NCCN1CCC(c2cccs2)CC1)Nc1cccs1`, the “Percent Effect” value is -30.63%.

As for `Oc1ccc(N2CCN(Cc3cc4c(cc3Br)OCCO4)CC2)cc1`, the “Percent Effect” value is -18.88%.

With `O=C(c1cccc(S(=O)(=O)NCCCc2ccco2)c1)N1CCOCC1`, the “Percent Effect” value is recorded as -44.89%.

For `Cc1cncc(C(=O)N2CCCC(C(=O)CCc3ccccc3)C2)c1` (stereo not drawn), the “Percent Effect” value is given as -9.118%.

As for `CCN(c1ccc(C(=O)N2CCCC2)cc1)S(=O)(=O)CC`, the “Percent Effect” value was 5.771%.

Regarding `CC(C)C1CN(c2ncc(F)cn2)CCC(=O)N1Cc1ccc(F)cc1` (stereo not drawn), the “Percent Effect” value is 75.74%.

`CSCCC(=O)N1CCC(Oc2cc(C)ccc2F)(C(=O)O)CC1`: the “Percent Effect” value is listed as 12.24%.

With `O=C1CCCCN1Cc1cccc(NC(=O)N2CCSCC2)c1`, the “Percent Effect” value came to 22.51%.

Regarding `CSCCCNC(=O)Nc1cccc(-c2nccn2C)c1`, the “Percent Effect” value is -33.04%.

On to `CC(C)c1nn(CC(=O)N2CCCCC2)c(=O)c2c1cnn2C(C)(C)C`, for which the “Percent Effect” value is -88.07%.

Take `Cc1nc(C)n(CC2CCCCN2CC(=O)Nc2cccnc2)n1` (stereo not drawn): the “Percent Effect” value is -10.51%.

As for `CCCN(CCO)C(=O)C1CCC(=O)N(CCc2ccc(Cl)cc2)C1` (stereo not drawn), the “Percent Effect” value is -16.9%.

As to `Cc1cnc2n(c1=O)CC(C(=O)NC1CC1)CS2` (stereo not drawn), the “Percent Effect” value is -61.59%.

`O=C1NCCCCC1Sc1nnc(-c2cccnc2)n1C1CC1` (stereo not drawn): the “Percent Effect” value was -73.97%.

As to `COc1ccc(C2CCCCCN2S(=O)(=O)N(C)C)cc1` (stereo not drawn), the “Percent Effect” value stood at 18.41%.

On to `CCc1cc(N[C@H]2CC[C@H](O)CC2)n2nc(C)c(C)c2n1`, for which the “Percent Effect” value is on record as 12.6%.

In the case of `Cc1cccc(CCC(=O)N2CCOCC2c2c(C)n[nH]c2C)c1` (stereo not drawn), the “Percent Effect” value was -56.4%.

For the molecule `Cc1nc(C)n(CC2CN(CC(=O)Nc3nccs3)CCO2)n1` (stereo not drawn), the “Percent Effect” value is listed as -3.889%.

Consider `COCC(NC(=O)c1cc[nH]n1)c1cccc(C(F)(F)F)c1` (stereo not drawn), for which the “Percent Effect” value is recorded as -87.52%.

In the case of `COc1ccccc1[C@@H]1CN(Cc2cc(C(C)(C)C)[nH]n2)C[C@H]1C(=O)O`, the “Percent Effect” value is on record as 42.17%.

In the case of `O=C(c1cc(=O)[nH]c(=O)[nH]1)N1CCCCC1c1ccc(F)cc1` (stereo not drawn), the “Percent Effect” value is on record as -6.768%.

For `O=C(c1cnc(COc2ccccc2)nc1O)N1CCOCC1`, the “Percent Effect” value came to 1.503%.

Consider `CN(C)C(C(=O)N1CCCC1)c1ccccc1F` (stereo not drawn), for which the “Percent Effect” value is -55.33%.

For `O=C(NCC(O)c1cccs1)c1cccc(Cl)c1` (stereo not drawn), the “Percent Effect” value is -28.05%.

Turning to `CCC1c2cccn2CCN1C(=O)c1ccc2nonc2c1` (stereo not drawn), the “Percent Effect” value was -19.69%.

Consider `CS(=O)(=O)Cc1cccc(C(=O)NCC2Cc3ccccc3O2)c1` (stereo not drawn), for which the “Percent Effect” value is reported as -78.27%.

Take `COc1cccc(S(=O)(=O)NC2CNC(=O)C2)c1` (stereo not drawn): the “Percent Effect” value is -3.901%.

Take `Cc1ncc(-c2nc3cc(S(=O)(=O)N4CCCC4)ccc3n2C)cn1`: the “Percent Effect” value is -72.39%.

In the case of `Cl.NC(=O)COc1ccc(CNCc2ccc(F)cc2F)cc1`, the “Percent Effect” value was -10.97%.

For the molecule `Cc1nc(C2CCCN(C(=O)c3scnc3C)C2)no1` (stereo not drawn), the “Percent Effect” value was 18.51%.

For the molecule `Cc1nc(C)n(CC2CCCN(CCc3ccncc3)C2)n1` (stereo not drawn), the “Percent Effect” value was -44.91%.

`Cn1c(C(F)(F)F)nn(CCNC(=O)c2cnc3ccccc3n2)c1=O`: the “Percent Effect” value was -7.141%.

For the molecule `O=C(Nc1ccc(F)cc1)N1C[C@H]2CC[C@@H]1CN(Cc1cccnc1)C2`, the “Percent Effect” value is given as -3.001%.

Consider `CCc1nnc2n1CCN(C(=O)c1csc(-c3cnn(C)c3)n1)C2`, for which the “Percent Effect” value is reported as -4.866%.

For the molecule `Cc1n[nH]c(C)c1C1CCCN1C(=O)NCC(=O)NC(C)(C)C` (stereo not drawn), the “Percent Effect” value is listed as -7.96%.

Regarding `Cc1ccc2cc(C3(O)CCN(C(=O)CN4CCCC4)CC3)ccc2n1`, the “Percent Effect” value was determined as 5.836%.

Consider `CC(=O)N1CCC(C(=O)NCCN2CCCCC2)CC1`, for which the “Percent Effect” value turned out to be 25.49%.

Regarding `Cc1cc(C(=O)N2CCC(c3nccn3Cc3ccncc3)CC2)no1`, the “Percent Effect” value was -48.3%.

For the molecule `COc1ccc(C2CCCN2C(=O)NCCNc2ncccn2)cc1` (stereo not drawn), the “Percent Effect” value is -55.34%.

As for `CC(CN1CCC2(CC1)c1nc[nH]c1CCN2S(C)(=O)=O)C(F)(F)F` (stereo not drawn), the “Percent Effect” value was found to be 2.483%.

For the molecule `Cc1cc(N2CCN3CCCCC3C2)n2nc(C)c(C)c2n1` (stereo not drawn), the “Percent Effect” value was -7.768%.

On to `CCN(c1ccc(C(=O)N2CCCC(C)C2)cc1)S(=O)(=O)CC` (stereo not drawn), for which the “Percent Effect” value was -11.81%.

On to `Cc1ccc(S(=O)(=O)NC2CC2)cc1C`, for which the “Percent Effect” value was -24.32%.

`COCC(NC(=O)c1ccc[nH]1)c1cccc(C(F)(F)F)c1` (stereo not drawn): the “Percent Effect” value was -105.3%.

On to `COCc1cc(NCCc2ccc(F)cc2)n2nccc2n1`, for which the “Percent Effect” value is given as -25.55%.

As to `CN1C(=O)C(C)(C)COc2cc(NS(=O)(=O)c3ccccc3)ccc21`, the “Percent Effect” value was 35.25%.

Consider `CCS(=O)(=O)N1CCC2(CCCN(Cc3cc(OC)ccc3F)C2)C1` (stereo not drawn), for which the “Percent Effect” value was found to be 49.58%.

As to `Cc1cnccc1N1CCCN(C(=O)CCCc2cn[nH]c2)CC1`, the “Percent Effect” value is given as -14.12%.

For the molecule `Cc1ccn(-c2ccccc2NCc2cccnc2C)n1`, the “Percent Effect” value is on record as -3.196%.

With `COc1ccccc1S(=O)(=O)N1CCC(Oc2cccnn2)CC1`, the “Percent Effect” value is recorded as -19.77%.

As for `Cn1c(C(F)(F)F)nn(CCNC(=O)CSCc2ccccc2)c1=O`, the “Percent Effect” value is -2.069%.

On to `O=C(NC[C@@H]1CCCN1)c1cc(COc2cccc(C(F)(F)F)c2)[nH]n1`, for which the “Percent Effect” value is reported as 73.28%.

Take `COCc1cc(NCc2cc(F)ccc2F)n2nccc2n1`: the “Percent Effect” value was -61.56%.

Consider `CCn1c(N)nc2cc(C(=O)NCc3ccccc3Cl)cnc21`, for which the “Percent Effect” value is -40.17%.

As to `CSc1ncc(C(=O)N2C[C@H]3CC[C@@H]2CN(Cc2ccccc2)C3)cn1`, the “Percent Effect” value was -35.01%.

As to `CCN(Cc1cccnc1)CC1CCCO1` (stereo not drawn), the “Percent Effect” value is -47.82%.

Turning to `O=C(CCc1ccccc1)C1CCCN(C(=O)c2ncc(F)cc2F)C1` (stereo not drawn), the “Percent Effect” value was -32.14%.

As to `CN1CCC(c2nnc(CN3CCC(O)CC3)n2C)CC1`, the “Percent Effect” value is listed as -3.365%.

On to `COc1cc(C)nc(N2CCN(Cc3nccn3C)CC2)n1`, for which the “Percent Effect” value is reported as -41.68%.
